In brackets after ≈: the same amount, converted by molar mass. Read-outs that look alike come from different tables or passages of the source. Some results are limits rather than exact numbers.

Data on 16 compounds can be found in paper PMC4671662, “Identification of New Molecular Entities (NMEs) as Potential Leads against Tuberculosis from Open Source Compound Repository” (PLoS ONE, 2015).

Assay [1] deals with M. tuberculosis (H37Rv). In words: M. tuberculosis (H37Rv) inhibition assay, Alamar Blue MIC. In kind it is cell-based. To be noted: Mycobacterium tuberculosis, 168 h, six days + 24 h. A general note: Resazurin is reduced to fluorescent resorufin, in cell work by metabolically active cells.
The test system of assay [2] is Mycobacterium smegmatis (mc^2155). Nature of the assay: Antimycobacterial assay, turbidometric MIC (OD 600 nm). In kind it is cell-based. To be noted: Mycolicibacterium smegmatis, read-out: M. smeg MIC.
For assay [3], the system named is Mycobacterium bovis (BCG). In words: microbe, parasite or virus in culture. To be noted: Mycobacterium tuberculosis variant bovis BCG, 96 h, read-out: BCG MIC. In kind it is cell-based.
Assay [4] concerns Mycobacterium. In words: Minimum Bactericidal Concentration (MBC) test, CFU approach. To be noted: for Bacteriocidal/Bacteriostatic: from comparison of MIC and MBC; for MBC compared with MIC: against the test organisms of the study. In kind it is cell-based.
Assay [5] has as its system HepG2 (human hepatoma cells). In words: Sulforhodamine B (SRB) cytotoxicity assay. Format: cell-based. To be noted: 48 h. On the technique in general: The SRB assay estimates cell density from bound dye.
The test system of assay [6] is A549 (human lung epithelial cells). In words: Sulforhodamine B (SRB) cytotoxicity assay. To be noted: 48 h. In kind it is cell-based.
Assay [7] relates to MCF-7. Also noted: method as in PMID 18507473. To be noted: cited from earlier work.
Assay [8] has as its system NCI-H460. Set-up: method as in PMID 18507473. To be noted: cited from earlier work.
The test system of assay [9] is SF-264. Also noted: method as in PMID 18507473. To be noted: cited from earlier work.
In assay [10] the test system is M. smegmatis (MC^2 155). In words: M. smegmatis primary screening, z-score. In kind it is cell-based, Mycobacterium smegmatis. To be noted: positive controls in primary screening.
Assay [11] has as its system Campylobacter fetus subsp. jejuni. To be noted: cited from earlier work.
Setting [12] is: MC^2155, lowest concentration with 90% growth inhibition, 32 hours.

The term IC50 denotes the concentration that inhibits the measured activity by half. With `COc1cc2c(cc1NC(=O)N1CCCCC1c1cccnc1)oc1ccccc12` (stereo not shown) [Compound H15], the MIC was 12.5 µM in assay [1], 42 µM (≈ 16.9 µg/mL) in [2] (setting [12]) and 12 µM (≈ 4.83 µg/mL) in [3]. Moreover, the Bacteriocidal/Bacteriostatic entry in assay [4] was “Bacteriostatic”. Besides, the results for the IC50 in assay [5] and in assay [6] were 510 µM and 526 µM, respectively.

With `O=C(CC1(O)c2ccccc2-n2c1nc1ccccc1c2=O)c1ccccc1` (stereo not shown) [Compound H26], the MIC amounted to 0.4 µM in assay [1], 53 µM (≈ 19.5 µg/mL) in [2] (setting [12]) and 12 µM (≈ 4.44 µg/mL) in assay [3]. Moreover, the “MBC compared with MIC” value in assay [4] is recorded as “MBC values equivalent to their MIC values”. Besides, the Bacteriocidal/Bacteriostatic entry in [4] is listed as “bactericidal activity”. In addition, the concentration for half-maximal inhibition (IC50) in assay [5] is 417 µM; in assay [6], 368 µM; in assay [7], above 50 µM; in assay [8], above 50 µM; in assay [9], above 50 µM.

For `N#Cc1ccc(C(=O)CC2(O)c3ccccc3-n3c2nc2ccccc2c3=O)cc1` (stereo not shown) [Compound H27], the figures for the MIC in assay [1], in assay [2] (setting [12]) and in assay [3] were 1.56 µM, 12.8 µM (≈ 5.05 µg/mL) and 6.58 µM (≈ 2.59 µg/mL), respectively. Further, the Bacteriocidal/Bacteriostatic entry in [4] is “Bacteriostatic”. Moreover, the IC50 in [5] came out at 444 µM; in [6] it was 902 µM.

Turning to `O=C(CSc1nnc(COc2ccc(F)cc2)o1)OC1CCCCC1` [Compound H43], the MIC was found to be 6.28 µM in assay [1], 52 µM (≈ 19 µg/mL) in assay [2] (setting [12]) and 13.5 µM (≈ 4.96 µg/mL) in assay [3]. Further, the Bacteriocidal/Bacteriostatic entry in assay [4] is listed as “Bacteriostatic”. In addition, the results for the IC50 in [5] and in assay [6] were 373 µM and 335 µM, respectively.

For `Cc1nc(C)c(C(=O)N(c2cccc(C)c2C)C(C(=O)NC2CCCCC2)c2ccccc2)s1` (stereo not shown) [Compound H85], the MIC in assay [1] is 12.5 µM; in [2] (setting [12]), 25.1 µM (≈ 12 µg/mL); in assay [3], 11.5 µM (≈ 5.47 µg/mL). Moreover, in assay [4], the Bacteriocidal/Bacteriostatic result is listed as “Bacteriostatic”. Moreover, the IC50 turned out to be 790 µM in [5] and 497 µM in [6].

Consider `CCSc1nsc(NC(=O)Nc2ccc(C(F)(F)F)cc2)n1` [Compound H94], for which the MIC in assay [1] amounted to 6.25 µM; in [2] (setting [12]), 25.4 µM (≈ 8.83 µg/mL); in [3], 12.7 µM (≈ 4.42 µg/mL). For the same compound, the Bacteriocidal/Bacteriostatic entry in assay [4] was “Bacteriostatic”. Further, the IC50 in assay [5] was 599 µM; in [6] it was 443 µM.

`Cc1ccc(-c2nc3ccccc3s2)cc1` [Compound H117]: the MIC in assay [1] is 12.5 µM; in assay [2] (setting [12]) it was 26.8 µM (≈ 6.04 µg/mL); in assay [3], 14.9 µM (≈ 3.36 µg/mL). The Bacteriocidal/Bacteriostatic entry in [4] is “Bacteriostatic”. Further, the IC50 in [5] is 408 µM; in [6], 475 µM.

On to `Cc1ccc(C)c(Cn2nnc3c(O)nc(C4CCCN(C(=O)c5ccc(C(C)(C)C)cc5)C4)nc32)c1` (stereo not shown) [Compound H126], for which the figures for the MIC in assay [1], in [2] (setting [12]) and in assay [3] were 12.5 µM, 30.6 µM (≈ 15.3 µg/mL) and 23.8 µM (≈ 11.9 µg/mL), respectively. Further, in assay [4], the Bacteriocidal/Bacteriostatic result is given as “Bacteriostatic”. Further, the half-inhibitory concentration (IC50) came out at 357 µM in assay [5] and 369 µM in [6].

Regarding `O=C(CSc1nnc2scc(-c3ccccc3)n12)Nc1ccc(N2CCCC2)cc1` [Compound H127], the MIC in [1] is 12.5 µM; in [2] (setting [12]) it was 46.6 µM (≈ 20.3 µg/mL); in [3] it was 14.2 µM (≈ 6.19 µg/mL). Moreover, the Bacteriocidal/Bacteriostatic entry in assay [4] is “Bacteriostatic”. Besides, the results for the IC50 in [5] and in assay [6] were 348 µM and 411 µM, respectively.

`Nc1ccc(C(=O)CSc2nnc3c(n2)CCCC3)cc1` [Compound H134]: the MIC in [1] came to 12.5 µM; in [2] (setting [12]), 22.7 µM (≈ 6.82 µg/mL); in assay [3] it was 10.9 µM (≈ 3.27 µg/mL). Further, in [4], the Bacteriocidal/Bacteriostatic result was “Bacteriostatic”. For the same compound, the half-inhibitory concentration (IC50) in assay [5] is 368 µM; in [6] it was 424 µM.

Turning to `Nc1ccc(C(=O)CC2(O)c3ccccc3-n3c2nc2ccccc2c3=O)cc1` (stereo not shown) [Compound H136], the results for the MIC in [1], in assay [2] (setting [12]) and in assay [3] were 1.6 µM, 42.5 µM (≈ 16.3 µg/mL) and 11.4 µM (≈ 4.37 µg/mL), respectively. The “MBC compared with MIC” value in assay [4] is given as “MBC values equivalent to their MIC values”. For the same compound, the Bacteriocidal/Bacteriostatic entry in assay [4] is “bactericidal activity”. The IC50 in [5] was 359 µM; in assay [6], 321 µM.

In the case of `O=C(Cn1c(=O)n(Cc2ccc(F)cc2)c(=O)c2ccccc21)Nc1cc(F)ccc1F` [Compound H137], the MIC in assay [1] is 12.5 µM; in [2] (setting [12]), 39.2 µM (≈ 17.2 µg/mL); in assay [3] it was 22.8 µM (≈ 10 µg/mL). In addition, the Bacteriocidal/Bacteriostatic entry in [4] is reported as “Bacteriostatic”. Moreover, the IC50 in assay [5] was found to be 390 µM; in assay [6] it was 385 µM.

Regarding `COc1cccc2c1C(=O)c1c(O)c3c(c(O)c1C2=O)C[C@@](O)(C(=O)CO)C[C@@H]3O[C@H]1C[C@H](N)[C@H](O)[C@H](C)O1` [Doxorubicin, reference compound], the IC50 amounted to 4.6 µM in assay [5] and 5.2 µM in [6].

Consider `NNC(=O)c1ccncc1` [Isoniazid, reference compound], for which the MIC in [2] (MC^2155, 32 h) is 11 µM (≈ 1.51 µg/mL). The same compound showed a mean z-score in [10] of 4.9.

For `CO[C@H]1/C=C/O[C@@]2(C)Oc3c(C)c(O)c4c(O)c(c(/C=N/N5CCN(C)CC5)c(O)c4c3C2=O)NC(=O)/C(C)=C\C=C\[C@H](C)[C@H](O)[C@@H](C)[C@@H](O)[C@@H](C)[C@H](OC(C)=O)[C@@H]1C` [Rifampicin, reference compound], the MIC in [2] (MC^2155, 32 h) came out at 2.43 µM (≈ 2 µg/mL). Moreover, in [10], the mean z-score was 4.4.

The MBC is the lowest tested concentration that kills the bacteria rather than only halting them. Regarding co-trimoxazole, in [11], the MBC was 125 µg/mL and the MIC was 31.2 µg/mL.
